Reference: patent US12398118B2, “Rho-associated protein kinase inhibitor, pharmaceutical composition comprising same, and use thereof” (BEIJING TIDE PHARMACEUTICAL CO., LTD., priority 2018, dated 2025)
pIC50: −log10 of the molar value.

Experiments:
[1] = biological target: ROCK2 (Homo sapiens, UniProt O75116); assay: ROCK2 kinase IC50, HTRF KinEASE-STK S2 kit; type: biochemical; settings: 2 hours at room temperature
Method: (§1) The kinase IC50 was determined by a commercialized CISBIO kinase detection kit, HTRF KinEASE-STK S2 kit (62ST2PEC). ROCK2 (01-119) employed in the reaction was purchased from Carna Biosciences.
(§2) Before the assay, the following working solutions as needed were formulated with corresponding reagents according to the instruction of the kinase detection kit: 1×kinase buffer, 5×STK-S2 substrate working solution (1.5 μM) and 5×ATP working solution (1.5 μM), 5×ROCK2 kinase working solution, 4×Streptavidin-XL665 working solution, and 4×STK-Ab-Cryptate 2 detection solution. Then the assay was performed according to the following procedure.
(§3) A solution of a compound at a concentration of 10000 nM was prepared with the 1×kinase buffer containing 2.5% DMSO. Gradient dilution of the solution of the compound was performed with the kinase buffer containing DMSO, so as to obtain solutions of a test compound at 9 different concentrations. In addition to wells of test compounds, a positive well (containing all the reagents except the compound) and a negative well (containing all the reagents except the test compound and kinase) were set. Except for the control wells (positive and negative wells), a solution of a test compound (4 μL) was added to each of the reaction wells, and a solution of 2.5% DMSO was added to the control wells. Then the substrate (2 μM, i.e., 2 μL 5×STK-S2 substrate working solution) was added to each of the reaction wells. The 5×ROCK2 kinase working solution (2 μL, containing 1.4 ng ROCK2 kinase) was added to each of the reaction wells except for the negative well, the volume of which was made up with the 1×kinase buffer (2 μL). The 5×ATP working solution (2 μL) was added to each of the reaction wells, and the mixtures were incubated at room temperature for 2 hours. After the kinase reaction was complete, the 4×Streptavidin-XL665 working solution was added to each of the reaction wells, the solutions were mixed, followed by immediate addition of the 4×STK-Ab-Cryptate 2 detection solution (5 μL), and the mixtures were incubated at room temperature for 1 hour. The fluorescence signal was read on ENVISION (Perkinelmer) (excitation wavelength: 320 inn, and emission wavelength: 665 nm and 615 nm). The inhibitory rate in each well was calculated based on the fluorescence intensity value: ER (Emission Ratio)_(fluorescence intensity at 665 nm/fluorescence intensity at 615 nm); inhibitory rate=(ERpositive−ERtest compound)/(ERpositive−ERnegative)*100%. Curves were plotted and fitted to obtain the median inhibitory concentration (IC50) of each teat compound with the PRISM 5.0 software. According to a biological test method similar to the above, the IC50 values of the compounds on ROCK1 were also tested.

[2] = biological target: ROCK1 (Homo sapiens (Human), UniProt Q13464); assay: ROCK1 kinase IC50, biological test method similar to ROCK2 assay; type: biochemical
Method: as §1, §2, §3

Chain of ROCK2 (O75116 whole entry, looked up): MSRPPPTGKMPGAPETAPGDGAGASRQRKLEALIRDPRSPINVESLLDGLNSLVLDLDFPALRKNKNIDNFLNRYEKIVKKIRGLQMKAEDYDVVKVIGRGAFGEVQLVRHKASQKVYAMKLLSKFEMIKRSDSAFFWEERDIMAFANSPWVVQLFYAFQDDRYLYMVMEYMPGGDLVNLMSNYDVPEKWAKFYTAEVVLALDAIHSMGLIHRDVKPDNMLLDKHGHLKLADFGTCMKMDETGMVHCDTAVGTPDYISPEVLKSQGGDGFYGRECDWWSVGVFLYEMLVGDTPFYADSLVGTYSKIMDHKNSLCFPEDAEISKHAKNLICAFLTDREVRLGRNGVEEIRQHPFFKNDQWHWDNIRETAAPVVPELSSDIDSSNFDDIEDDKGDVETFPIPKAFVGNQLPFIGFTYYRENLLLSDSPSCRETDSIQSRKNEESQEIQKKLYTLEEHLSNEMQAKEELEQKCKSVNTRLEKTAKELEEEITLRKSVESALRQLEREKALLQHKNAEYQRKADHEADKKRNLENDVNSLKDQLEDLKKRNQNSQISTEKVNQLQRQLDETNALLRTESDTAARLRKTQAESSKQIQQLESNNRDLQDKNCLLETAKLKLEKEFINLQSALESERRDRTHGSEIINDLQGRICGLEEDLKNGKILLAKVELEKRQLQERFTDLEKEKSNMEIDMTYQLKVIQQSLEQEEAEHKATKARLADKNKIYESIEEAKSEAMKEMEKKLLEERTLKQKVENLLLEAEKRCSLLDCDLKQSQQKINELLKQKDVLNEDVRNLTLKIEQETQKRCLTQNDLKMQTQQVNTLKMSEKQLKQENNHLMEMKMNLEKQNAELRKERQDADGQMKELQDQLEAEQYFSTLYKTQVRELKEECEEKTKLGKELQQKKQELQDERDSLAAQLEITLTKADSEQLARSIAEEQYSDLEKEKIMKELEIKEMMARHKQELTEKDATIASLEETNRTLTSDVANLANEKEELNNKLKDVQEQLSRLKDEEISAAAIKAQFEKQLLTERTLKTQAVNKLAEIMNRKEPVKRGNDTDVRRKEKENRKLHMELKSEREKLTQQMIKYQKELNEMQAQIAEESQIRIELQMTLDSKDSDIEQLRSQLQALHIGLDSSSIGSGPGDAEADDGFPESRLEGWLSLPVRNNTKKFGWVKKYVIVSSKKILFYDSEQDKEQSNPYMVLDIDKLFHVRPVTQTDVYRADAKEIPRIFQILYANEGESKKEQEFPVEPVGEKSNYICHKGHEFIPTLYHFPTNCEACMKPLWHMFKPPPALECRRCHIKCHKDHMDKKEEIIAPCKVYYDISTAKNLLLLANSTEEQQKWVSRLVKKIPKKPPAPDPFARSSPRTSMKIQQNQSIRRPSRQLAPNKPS
Chain of ROCK1 (Q13464 whole entry, species assumed): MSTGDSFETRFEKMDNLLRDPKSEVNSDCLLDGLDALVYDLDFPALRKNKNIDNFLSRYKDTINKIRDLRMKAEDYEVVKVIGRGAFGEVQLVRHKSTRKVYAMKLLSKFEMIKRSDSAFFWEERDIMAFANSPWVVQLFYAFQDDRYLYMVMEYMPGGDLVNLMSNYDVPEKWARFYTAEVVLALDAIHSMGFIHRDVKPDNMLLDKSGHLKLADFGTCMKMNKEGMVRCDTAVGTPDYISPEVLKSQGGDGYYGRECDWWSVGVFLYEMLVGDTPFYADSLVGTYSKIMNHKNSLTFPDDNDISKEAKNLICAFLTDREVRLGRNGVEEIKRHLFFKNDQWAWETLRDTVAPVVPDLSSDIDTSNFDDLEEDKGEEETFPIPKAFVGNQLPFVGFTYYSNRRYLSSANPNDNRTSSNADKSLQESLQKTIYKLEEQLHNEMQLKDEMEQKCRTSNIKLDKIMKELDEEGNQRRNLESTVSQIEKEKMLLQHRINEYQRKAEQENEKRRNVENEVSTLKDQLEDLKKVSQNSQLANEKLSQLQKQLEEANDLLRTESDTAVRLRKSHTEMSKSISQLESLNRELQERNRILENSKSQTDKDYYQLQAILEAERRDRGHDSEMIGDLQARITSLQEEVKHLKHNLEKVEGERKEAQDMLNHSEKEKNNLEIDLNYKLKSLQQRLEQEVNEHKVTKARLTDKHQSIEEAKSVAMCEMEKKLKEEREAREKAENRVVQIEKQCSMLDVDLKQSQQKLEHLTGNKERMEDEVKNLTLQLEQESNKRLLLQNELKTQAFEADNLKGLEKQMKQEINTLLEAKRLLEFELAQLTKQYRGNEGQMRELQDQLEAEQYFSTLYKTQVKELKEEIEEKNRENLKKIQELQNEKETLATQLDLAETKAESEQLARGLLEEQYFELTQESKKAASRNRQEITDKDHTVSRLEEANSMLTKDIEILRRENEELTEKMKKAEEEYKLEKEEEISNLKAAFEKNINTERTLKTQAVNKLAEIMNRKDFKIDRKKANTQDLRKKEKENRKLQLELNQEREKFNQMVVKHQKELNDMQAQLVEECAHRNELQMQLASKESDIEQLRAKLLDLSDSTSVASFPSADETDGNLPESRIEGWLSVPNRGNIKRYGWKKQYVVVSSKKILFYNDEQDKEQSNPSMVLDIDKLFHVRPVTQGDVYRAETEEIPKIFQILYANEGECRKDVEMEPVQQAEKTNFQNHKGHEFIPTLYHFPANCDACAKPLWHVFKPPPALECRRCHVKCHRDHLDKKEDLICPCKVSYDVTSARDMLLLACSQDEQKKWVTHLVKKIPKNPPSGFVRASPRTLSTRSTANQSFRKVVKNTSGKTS

Row | SMILES | pIC50 [1] | pIC50 [2]
1 | CC(OC(=O)N1Cc2ccc(-c3ncc(F)c(Nc4ccc5c(c4)CCNC5=O)n3)cc2C1)C(F)(F)F (centres unmarked) [C66, 1,1,1-trifluoro-propan-2-yl 5-(5-fluoro-4-((1-oxo-1,2,3,4-tetrahydro-isoquinolin-6-yl)amino)pyrimidin-2-yl) isoindolin-2-carboxylate] | 7.09 | < 5.00
2 | CC(CC(=O)N1Cc2ccc(-c3ncc(F)c(Nc4ccc5c(c4)CCNC5=O)n3)cc2C1)C(F)(F)F (centres unmarked) [C67, 6-((5-fluoro-2-(2-(4,4,4-trifluoro-3-methyl-butanoyl)isoindolin-5-yl)pyrimidin-4-yl)amino)-3,4-dihydro-isoquinolin-1(2H)-one] | 7.00 | < 5.00
3 | O=C(CCC(F)(F)F)N1CCc2sc(-c3ncc(F)c(Nc4ccc5c(=O)[nH]ccc5c4)n3)cc2C1 [C68, 6-((5-fluoro-2-(5-(4,4,4-trifluorobutanoyl)-4,5,6,7-tetrahydrothieno[3,2-c]pyridin-2-yl)pyrimidin-4-yl)amino)isoquinolin-1(2H)-one] | 8.05 | < 5.00
4 | O=C1NCCc2cc(Nc3nc(-c4cc5c(s4)CCN(C(=O)CCC(F)(F)F)C5)ncc3F)ccc21 [C69, 6-((5-fluoro-2-(5-(4,4,4-trifluorobutanoyl)-4,5,6,7-tetrahydrothieno[3,2-c]pyridin-2-yl)pyrimidin-4-yl)amino)-3,4-dihydroisoquinolin-1(2H)-one] | 7.35 | < 5.00
5 | O=C(CCC(F)(F)F)N1CCc2cc(-c3ncc(F)c(Nc4ccc5c(=O)[nH]ccc5c4)n3)ccc21 [C70, 6-((5-fluoro-2-(1-(4,4,4-trifluoro-butanoyl)indolin-5-yl)pyrimidin-4-yl)amino) isoquinolin-1(2H)-one] | 7.82 | < 5.00
6 | CC(CC(=O)N1CCc2cc(-c3ncc(F)c(Nc4ccc5c(=O)[nH]ccc5c4)n3)ccc21)C(F)(F)F (centres unmarked) [C71, 6-((5-fluoro-2-(1-(4,4,4-trifluoro-3-methyl-butanoyl)indolin-5-yl)pyrimidin-4-yl)amino) isoquinolin-1(2H)-one] | 7.60 | < 5.00
7 | CC(OC(=O)N1CCc2cc(-c3ncc(F)c(Nc4ccc5c(=O)[nH]ccc5c4)n3)ccc21)C(F)(F)F (centres unmarked) [C73, 1,1,1-trifluoro-propan-2-yl 5-(5-fluoro-4-((1-oxo-1,2-dihydro-isoquinolin-6-yl)amino)pyrimidin-2-yl) indoline-1-carboxylate] | 7.11 | < 5.00
8 | CC(CC(=O)N1CCc2cc(-c3ncc(F)c(Nc4ccc5c(c4)CCNC5=O)n3)ccc21)C(F)(F)F (centres unmarked) [C74, 6-((5-fluoro-2-(1-(4,4,4-trifluoro-3-methyl-butanoyl)indolin-5-yl)pyrimidin-4-yl)amino)-3,4-dihydro-isoquinolin-1(2H)-one] | 7.27 | < 5.00
9 | CC(C)(C)OC(=O)N1Cc2ccc(-c3ncc(F)c(Nc4ccc5c(c4)CCNC5=O)n3)cc2C1 [C76, tert-butyl 5-(5-fluoro-4-((1-oxo-1,2,3,4-tetrahydro-isoquinolin-6-yl)amino)pyrimidin-2-yl) isoindoline-2-carboxylate] | 7.31 | < 5.00
10 | CN(CC(F)(F)F)C(=O)N1Cc2ccc(-c3ncc(F)c(Nc4ccc5c(c4)CCNC5=O)n3)cc2C1 [C78, 5-(5-fluoro-4-((1-oxo-1,2,3,4-tetrahydro-isoquinolin-6-yl)amino)pyrimidin-2-yl)-N-methyl-N-(2,2,2-trifluoro-ethyl) isoindoline-2-carboxylate] | 7.40 | < 5.00
11 | O=C(N1Cc2ccc(-c3ncc(F)c(Nc4ccc5c(=O)[nH]ccc5c4)n3)cc2C1)N1CC(F)(F)C1 [C79, 6-((2-(2-(3,3-difluoro-azetidine-1-carbonyl)isoindolin-5-yl)-5-fluoro-pyrimidin-4-yl)amino) isoquinolin-1(2H)-one] | 7.34 | < 5.00
12 | O=C1NCCc2cc(Nc3nc(-c4ccc5c(c4)CN(C(=O)N4CC(F)(F)C4)C5)ncc3F)ccc21 [C81, 6-((2-(2-(3,3-difluoro-azetidine-1-carbonyl)isoindolin-5-yl)-5-fluoro-pyrimidin-4-yl)amino)-3,4-dihydro-isoquinolin-1(2H)-one] | 6.89 | < 5.00
13 | CC(C)(CC(=O)N1Cc2ccc(-c3ncc(F)c(Nc4ccc5c(c4)CCNC5=O)n3)cc2C1)C(F)(F)F [C82, 6-((5-fluoro-2-(2-(4,4,4-trifluoro-3,3-dimethyl-butanoyl)isoindolin-5-yl)pyrimidin-4-yl)amino)-3,4-dihydro-isoquinolin-1(2H)-one] | 6.89 | < 5.00
